Numbers after ± are expanded uncertainties.
Assay: xn = mol fraction of the nth substance listed
Details: 101 kPa, Liquid

CCOS(=O)(=O)[O-].CCn1cc[n+](C)c1 [1-ethyl-3-methylimidazolium ethyl sulfate] + CO
mass density [kg/m3]
Details | 278.15 K | 283.15 K | 288.15 K | 293.15 K | 298.15 K | 303.15 K | 308.15 K
x2 = 0 | 1251.04 ± 1.1 | 1247.5 ± 1.1 | 1244.04 ± 1.1 | 1240.66 ± 1.1 | 1237.27 ± 1.1 | 1233.89 ± 1.1 | 1230.51 ± 1.1
x2 = 0.005 | 1250.51 ± 1.1 | 1246.96 ± 1.1 | 1243.52 ± 1.1 | 1240.13 ± 1.1 | 1236.74 ± 1.1 | 1233.36 ± 1.1 | 1229.98 ± 1.1
x2 = 0.0097 | 1250.12 ± 1.1 | 1246.57 ± 1.1 | 1243.14 ± 1.1 | 1239.75 ± 1.1 | 1236.36 ± 1.1 | 1232.97 ± 1.1 | 1229.59 ± 1.1
x2 = 0.015 | 1249.8 ± 1.1 | 1246.24 ± 1.1 | 1242.81 ± 1.1 | 1239.42 ± 1.1 | 1236.02 ± 1.1 | 1232.63 ± 1.1 | 1229.24 ± 1.1
x2 = 0.0252 | 1248.78 ± 1.1 | 1245.23 ± 1.1 | 1241.82 ± 1.1 | 1238.42 ± 1.1 | 1235.02 ± 1.1 | 1231.63 ± 1.1 | 1228.25 ± 1
x2 = 0.0403 | 1247.44 ± 1.1 | 1243.88 ± 1.1 | 1240.48 ± 1.1 | 1237.07 ± 1.1 | 1233.67 ± 1.1 | 1230.27 ± 1 | 1226.88 ± 1
x2 = 0.0598 | 1245.64 ± 1.1 | 1242.13 ± 1.1 | 1238.72 ± 1.1 | 1235.31 ± 1 | 1231.89 ± 1 | 1228.49 ± 1 | 1225.09 ± 1
x2 = 0.08 | 1243.77 ± 1.1 | 1240.29 ± 1.1 | 1236.86 ± 1 | 1233.44 ± 1 | 1230.02 ± 1 | 1226.61 ± 1 | 1223.2 ± 1
x2 = 0.1001 | 1241.79 ± 1 | 1238.35 ± 1 | 1234.91 ± 1 | 1231.47 ± 1 | 1228.05 ± 1 | 1224.63 ± 1 | 1221.22 ± 0.99
x2 = 0.15 | 1236.8 ± 1 | 1233.34 ± 1 | 1229.88 ± 1 | 1226.42 ± 0.99 | 1222.98 ± 0.98 | 1219.54 ± 0.97 | 1216.12 ± 0.96
x2 = 0.2 | 1231.24 ± 0.98 | 1227.75 ± 0.97 | 1224.26 ± 0.97 | 1220.78 ± 0.96 | 1217.32 ± 0.95 | 1213.87 ± 0.94 | 1210.42 ± 0.93
x2 = 0.3 | 1218.1 ± 0.92 | 1214.56 ± 0.91 | 1211.02 ± 0.9 | 1207.5 ± 0.9 | 1203.99 ± 0.89 | 1200.5 ± 0.88 | 1197.01 ± 0.87
x2 = 0.4 | 1201.9 ± 0.86 | 1198.3 ± 0.85 | 1194.72 ± 0.84 | 1191.15 ± 0.84 | 1187.59 ± 0.83 | 1184.05 ± 0.82 | 1180.51 ± 0.81
x2 = 0.4999 | 1180.84 ± 0.8 | 1177.18 ± 0.79 | 1173.54 ± 0.78 | 1169.91 ± 0.78 | 1166.29 ± 0.77 | 1162.69 ± 0.76 | 1159.1 ± 0.76
x2 = 0.6 | 1153.55 ± 0.73 | 1149.82 ± 0.72 | 1146.1 ± 0.71 | 1142.4 ± 0.71 | 1138.71 ± 0.7 | 1135.03 ± 0.69 | 1131.37 ± 0.69
x2 = 0.7 | 1115.57 ± 0.65 | 1111.73 ± 0.64 | 1107.91 ± 0.63 | 1104.11 ± 0.63 | 1100.31 ± 0.62 | 1096.53 ± 0.61 | 1092.76 ± 0.61
x2 = 0.8 | 1059.76 ± 0.55 | 1055.79 ± 0.54 | 1051.82 ± 0.53 | 1047.87 ± 0.53 | 1043.92 ± 0.52 | 1039.98 ± 0.52 | 1036.05 ± 0.52
x2 = 0.9 | 971.1 ± 0.47 | 966.89 ± 0.47 | 962.68 ± 0.47 | 958.49 ± 0.48 | 954.29 ± 0.48 | 950.1 ± 0.48 | 945.91 ± 0.49
x2 = 0.95 | 902.84 ± 0.53 | 898.44 ± 0.54 | 894.05 ± 0.54 | 889.67 ± 0.55 | 885.26 ± 0.55 | 880.86 ± 0.56 | 876.46 ± 0.57
x2 = 0.98 | 849.24 ± 0.6 | 844.69 ± 0.61 | 840.15 ± 0.62 | 835.63 ± 0.62 | 831.05 ± 0.63 | 826.49 ± 0.64 | 821.91 ± 0.65

CCOS(=O)(=O)[O-].CCn1cc[n+](C)c1 [1-ethyl-3-methylimidazolium ethyl sulfate] + ClCCl
x2 = 0
Details | mass density [kg/m3]
278.15 K | 1251.04 ± 1.1
283.15 K | 1247.5 ± 1.1
288.15 K | 1244.04 ± 1.1
293.15 K | 1240.66 ± 1.1
298.15 K | 1237.27 ± 1.1
303.15 K | 1233.89 ± 1.1
308.15 K | 1230.51 ± 1.1

From the NIST ThermoML archive (doi:10.1021/je1002237)
